Results on two compounds are retold here after patent US10285944B2 (ALFASIGMA S.P.A., priority 2005, dated 2019).

For data set [1] the following is noted: depending on the dose and the treatment duration; cited from earlier work.
Data set [2] concerns patients affected by Crohn's disease. Nature of the data set: Clinical multi-center randomised trial versus placebo in Crohn's disease. Format: in vivo, human. Conditions: 27 patients. The source says:
55 Crohn's disease patients in acute, mild to moderate grade, phase, having CDAI (Crohn Disease Active Index) value between 200 and 300, have been recruited. The primary end point was represented by the percentage of the patients in clinic remission defined as CDAI lower than 150 points at the end of the study. The patients, randomised in two groups: group A, of 27 patients and group B of 28 patients, have been treated for 12 weeks according to the following therapeutic schemes:
Group B: placebo, administrated 2 times in a day in a such quantity to correspond to the content of the dose of the active principle.

Data set [3] has as its system Crohn's patients characterized by a protein C reactive value higher than normal. In words: Crohn's patients with protein C reactive value higher than normal (subgroup of the trial). Conditions: subgroup with protein C value higher than normal values; 16 patients treated with rifaximin. Format: in vivo, human.
Setting [4] is: CDAI lower than 150 after 12 weeks, rifaximin 800 mg 2 times a day (preparation of example 3).

`Cc1ncc([N+](=O)[O-])n1CCO` [metronidazole]: the “incidence of side effects” value in data set [1] is listed as 10-20%.
With `CO[C@H]1/C=C/O[C@@]2(C)Oc3c(C)c(O)c4c(O)c(c5c(nc6cc(C)ccn65)c4c3C2=O)NC(=O)/C(C)=C\C=C\[C@H](C)[C@H](O)[C@@H](C)[C@@H](O)[C@@H](C)[C@H](OC(C)=O)[C@@H]1C` [rifaximin], in data set [2] (12 weeks, rifaximin 800 mg 2 times a day), the “therapeutic failure, percentage of the patients” value is “(3.4%)”. In data set [2] (setting [4]), the “Number of clinical remission” value was 14 and the “clinical remission, percentage of the patients” value is listed as “(51.9%)”. For the same compound, in data set [3], the “Number of clinical remission” value is 10; the “clinical remission, percentage of the patients” value is given as “(62.5%)”; the “therapeutic failure, percentage of the patients” value is “(0%)”.
